Reference: the supplement of paper PMC10307832

Columns and labels:
Experiment in all cases: relative viability (nuclei count vs DMSO), 5 days (fraction); higher = more cells survive
Selisistat + Navitoclax = compound: C1CC(C2=C(C1)C3=C(N2)C=CC(=C3)Cl)C(=O)N [Selisistat] + CC1(C)CCC(c2ccc(Cl)cc2)=C(CN2CCN(c3ccc(C(=O)NS(=O)(=O)c4ccc(N[C@H](CCN5CCOCC5)CSc5ccccc5)c(S(=O)(=O)C(F)(F)F)c4)cc3)CC2)C1 [Navitoclax] (partner 0.5 µM)
Procedure, shortened: (§1)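 Relative viability was taken as the ratio of nuclei in treated wells to nuclei in vehicle wells. Lung cancer cell lines in 1536-well plates received compounds by pin tool one day after seeding, either one drug alone or a fixed anchor-drug dose plus five library-drug doses (not always all listed) in √10 steps. Nuclei were counted on 4× images after 5 days of treatment, and values are medians of duplicate plates.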

Selisistat + Pemetrexed = compound: C1CC(C2=C(C1)C3=C(N2)C=CC(=C3)Cl)C(=O)N [Selisistat] + Nc1nc2[nH]cc(CCc3ccc(C(=O)N[C@@H](CCC(=O)O)C(=O)O)cc3)c2c(=O)[nH]1 [Pemetrexed] (partner 0.2 µM)
Procedure, shortened: as §1

Selisistat + Bortezomib = compound: C1CC(C2=C(C1)C3=C(N2)C=CC(=C3)Cl)C(=O)N [Selisistat] + CC(C)C[C@H](NC(=O)[C@H](Cc1ccccc1)NC(=O)c1cnccn1)B(O)O [Bortezomib] (partner 0.002 µM)
Procedure, shortened: as §1

Serdemetan + Phenformin = compound: c1ccc2c(CCNc3ccc(Nc4ccncc4)cc3)c[nH]c2c1 [Serdemetan] + N=C(N)NC(=N)NCCc1ccccc1 [Phenformin] (partner 250 µM)
Procedure, shortened: as §1

| Cell Line | relative viability (Selisistat + Navitoclax; first compound 0.4 µM) | relative viability (Selisistat + Navitoclax; first compound 1.265 µM) | relative viability (Selisistat + Navitoclax; first compound 4 µM) | relative viability (Selisistat + Navitoclax; first compound 12.65 µM) | relative viability (Selisistat + Navitoclax; first compound 40 µM) | relative viability (Selisistat + Pemetrexed; first compound 0.4 µM) | relative viability (Selisistat + Pemetrexed; first compound 1.265 µM) | relative viability (Selisistat + Pemetrexed; first compound 4 µM) | relative viability (Selisistat + Pemetrexed; first compound 12.65 µM) | relative viability (Selisistat + Pemetrexed; first compound 40 µM) | relative viability (Selisistat + Bortezomib; first compound 0.4 µM) | relative viability (Selisistat + Bortezomib; first compound 1.265 µM) | relative viability (Selisistat + Bortezomib; first compound 4 µM) | relative viability (Selisistat + Bortezomib; first compound 12.65 µM) | relative viability (Selisistat + Bortezomib; first compound 40 µM) | relative viability (Serdemetan + Phenformin; first compound 0.04 µM) | relative viability (Serdemetan + Phenformin; first compound 0.1265 µM) | relative viability (Serdemetan + Phenformin; first compound 0.4 µM) | relative viability (Serdemetan + Phenformin; first compound 1.265 µM) | relative viability (Serdemetan + Phenformin; first compound 4 µM) |
| --- | --- | --- | --- | --- | --- | --- | --- | --- | --- | --- | --- | --- | --- | --- | --- | --- | --- | --- | --- | --- |
| NCI-H1734 | 0.961 | 0.764 | 0.822 | 0.858 | 0.873 | 0.357 | 0.388 | 0.401 | 0.434 | 0.391 | 0.902 | 0.879 | 0.946 | 1.1 | 0.869 | 0.303 | 0.318 | 0.338 | 0.156 | 0.181 |
| NCI-H1755 | 1.08 | 1.08 | 1 | 0.99 | 1.06 | 0.406 | 0.431 | 0.524 | 0.619 | 0.366 | 1.04 | 0.972 | 0.955 | 1.01 | 0.925 | 0.625 | 0.623 | 0.564 | 0.469 | 0.52 |
| NCI-H1792 | 0.609 | 0.611 |  | 0.629 | 0.594 | 0.696 | 0.633 |  | 0.913 | 0.755 | 0.967 | 1 |  | 0.71 | 1.07 | 0.268 | 0.316 | 0.283 | 0.127 | 0.198 |
| NCI-H1915 | 0.782 | 0.776 | 0.83 | 0.797 | 0.804 | 0.494 | 0.559 | 0.495 | 0.462 | 0.489 | 1.03 | 0.943 | 0.953 | 1.02 | 1 | 0.38 | 0.358 | 0.359 | 0.318 | 0.334 |
| NCI-H1975 | 1.08 | 0.913 | 1.05 | 0.982 | 0.976 | 0.275 | 0.283 | 0.3 | 0.278 | 0.316 | 0.434 | 0.339 | 0.33 | 0.354 | 0.388 | 0.401 | 0.416 | 0.427 |  | 0.415 |
| NCI-H1993 | 0.969 | 0.891 |  | 1.03 | 0.986 | 0.581 | 0.711 |  | 0.554 | 0.592 | 1.22 | 1.18 |  | 1.25 | 1.23 | 0.516 | 0.539 | 0.596 | 0.454 | 0.532 |
| NCI-H2009 | 1.18 | 1.15 | 1.19 | 1.14 | 1.1 | 1.13 | 1.07 | 1.06 | 1.04 | 1.04 | 1.01 | 1.06 | 0.583 | 0.921 | 0.997 | 0.451 | 0.472 | 0.431 | 0.307 | 0.366 |
| NCI-H2023 | 1.03 | 0.986 | 0.989 | 0.948 | 0.92 | 0.239 | 0.259 | 0.258 | 0.203 | 0.236 | 0.978 | 0.961 | 0.849 | 0.95 | 0.928 | 0.395 | 0.413 | 0.351 | 0.254 | 0.205 |
| NCI-H2085 | 1.16 | 1.15 | 1.12 | 1.15 | 1.21 | 1.06 | 0.967 | 0.622 | 0.939 | 0.877 | 1.07 | 1.14 | 0.95 | 1.17 | 1.02 | 0.778 | 0.762 | 0.634 | 0.571 | 0.424 |
| NCI-H2087 | 1.13 | 0.99 | 1.02 | 0.926 | 0.779 | 0.681 | 0.624 |  | 0.634 | 0.691 | 0.738 | 0.709 | 0.734 | 0.806 | 0.719 | 0.446 | 0.47 | 0.455 | 0.267 | 0.253 |
| NCI-H2126 | 0.888 | 0.837 | 0.829 | 0.899 | 0.913 | 0.716 | 0.653 | 0.588 | 0.68 | 0.655 | 1.2 | 1.15 | 1.12 | 1.12 | 1.17 | 0.555 | 0.557 | 0.535 | 0.512 | 0.527 |
| NCI-H2228 | 1.15 | 0.894 | 0.759 | 0.939 | 0.747 | 0.32 | 0.308 | 0.344 | 0.325 | 0.408 | 1.01 | 1.01 | 0.971 | 0.923 | 1 | 0.38 | 0.269 | 0.362 | 0.238 | 0.21 |
| NCI-H2347 | 0.846 | 0.847 | 0.588 | 0.792 | 0.853 | 0.526 | 0.425 | 0.374 | 0.411 | 0.432 | 0.772 | 1.11 |  | 0.907 | 0.831 | 0.52 | 0.382 | 0.366 | 0.3 | 0.289 |
| NCI-H2405 | 0.785 |  |  | 0.804 | 0.793 | 0.984 | 1.04 |  | 1.01 | 1.04 | 0.985 | 0.932 | 0.854 | 0.997 | 0.88 | 0.317 | 0.406 | 0.366 | 0.344 | 0.381 |
| NCI-H3122 | 1.01 | 1.02 | 0.935 | 1.04 | 0.961 | 0.184 | 0.198 | 0.187 | 0.205 | 0.188 | 1 | 1 | 0.837 | 1.1 | 0.995 | 0.302 | 0.363 | 0.352 | 0.236 | 0.311 |
| PC-3 [JPC-3] | 0.753 | 0.741 | 0.746 | 0.696 | 0.776 | 1.14 | 1.15 |  | 0.951 | 1.02 | 0.796 | 0.788 | 0.828 | 0.81 | 0.885 | 0.475 | 0.494 | 0.486 | 0.482 | 0.532 |
